The supplement of paper PMC10307832

Tests used:
Assay in all cases: relative viability (nuclei count vs DMSO), 5 days (fraction); higher = more cells survive
NCI-H1793 = system: NCI-H1793
Method in brief: (§1)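 Dosing by pin tool came one day after lung cancer cell lines were seeded in 1536-well plates, using either one drug or a fixed anchor-drug dose plus five library-drug doses (not always all listed) in √10 steps. After 5 days, nuclei were counted on 4× images. Relative viability is treated-well nuclei count divided by vehicle-well nuclei count, and values are medians of duplicate plates.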

A-427 = system: A-427
Method in brief: as §1

HCC-366 = system: HCC-366
Method in brief: as §1

NCI-H2023 = system: NCI-H2023
Method in brief: as §1

NCI-H2405 = system: NCI-H2405
Method in brief: as §1

NCI-H2009 = system: NCI-H2009
Method in brief: as §1

NCI-H1437 = system: NCI-H1437
Method in brief: as §1

UMC-11 = system: UMC-11
Method in brief: as §1

NCI-H596 = system: NCI-H596
Method in brief: as §1

HARA = system: HARA
Method in brief: as §1

NCI-H1975 = system: NCI-H1975
Method in brief: as §1

SK-LU-1 = system: SK-LU-1
Method in brief: as §1

NCI-H441 = system: NCI-H441
Method in brief: as §1

NCI-H650 = system: NCI-H650
Method in brief: as §1

PC-14 = system: PC-14
Method in brief: as §1

NCI-H1755 = system: NCI-H1755
Method in brief: as §1

LXF-289 = system: LXF-289
Method in brief: as §1

H3255 = system: H3255
Method in brief: as §1

NCI-H1915 = system: NCI-H1915
Method in brief: as §1

NCI-H460 = system: NCI-H460
Method in brief: as §1

PC-3 [JPC-3] = system: PC-3 [JPC-3]
Method in brief: as §1

NCI-H3122 = system: NCI-H3122
Method in brief: as §1

HCC-15 = system: HCC-15
Method in brief: as §1

`O=c1[nH]c2ccccc2n1C1CCN(CCCC(c2ccc(F)cc2)c2ccc(F)cc2)CC1` [Pimozide] + Nc1nc2[nH]cc(CCc3ccc(C(=O)N[C@@H](CCC(=O)O)C(=O)O)cc3)c2c(=O)[nH]1 [Pemetrexed] (partner 0.2 µM) was tested, and the relative viability (NCI-H1793; first compound 0.08 µM) was 0.807, the relative viability (NCI-H1793; first compound 0.253 µM) was 0.798 and the relative viability (NCI-H1793; first compound 0.8 µM) was 0.8. For the same compound, the relative viability (NCI-H1793; first compound 2.53 µM) was 0.829, the relative viability (NCI-H1793; first compound 8 µM) was 0.676 and the relative viability (A-427; first compound 0.08 µM) was 0.992. The relative viability (A-427; first compound 0.253 µM) was 0.979, the relative viability (A-427; first compound 0.8 µM) was 0.928 and the relative viability (A-427; first compound 2.53 µM) was 0.899. It also gave a relative viability (A-427; first compound 8 µM) of 0.845, a relative viability (HCC-366; first compound 0.08 µM) of 0.166 and a relative viability (HCC-366; first compound 0.253 µM) of 0.173. The relative viability (HCC-366; first compound 0.8 µM) was 0.12, the relative viability (HCC-366; first compound 2.53 µM) was 0.152 and the relative viability (HCC-366; first compound 8 µM) was 0.189. It also gave a relative viability (NCI-H2023; first compound 0.08 µM) of 0.215, a relative viability (NCI-H2023; first compound 0.253 µM) of 0.231 and a relative viability (NCI-H2023; first compound 0.8 µM) of 0.226. It also gave a relative viability (NCI-H2023; first compound 2.53 µM) of 0.179, a relative viability (NCI-H2023; first compound 8 µM) of 0.164 and a relative viability (NCI-H2405; first compound 0.08 µM) of 0.968. The relative viability (NCI-H2405; first compound 0.253 µM) was 1.09, the relative viability (NCI-H2405; first compound 0.8 µM) was 1.05 and the relative viability (NCI-H2405; first compound 2.53 µM) was 0.989. The relative viability (NCI-H2405; first compound 8 µM) was 0.88, the relative viability (NCI-H2009; first compound 0.08 µM) was 1.07 and the relative viability (NCI-H2009; first compound 0.253 µM) was 1. It also gave a relative viability (NCI-H2009; first compound 0.8 µM) of 0.975, a relative viability (NCI-H2009; first compound 2.53 µM) of 0.963 and a relative viability (NCI-H2009; first compound 8 µM) of 0.973. It also gave a relative viability (NCI-H1437; first compound 0.08 µM) of 0.354, a relative viability (NCI-H1437; first compound 0.253 µM) of 0.306 and a relative viability (NCI-H1437; first compound 0.8 µM) of 0.274. For the same compound, the relative viability (NCI-H1437; first compound 2.53 µM) was 0.312, the relative viability (NCI-H1437; first compound 8 µM) was 0.219 and the relative viability (UMC-11; first compound 0.08 µM) was 0.82. The relative viability (UMC-11; first compound 0.253 µM) was 0.681, the relative viability (UMC-11; first compound 0.8 µM) was 0.748 and the relative viability (UMC-11; first compound 2.53 µM) was 0.772. For the same compound, the relative viability (UMC-11; first compound 8 µM) was 0.725, the relative viability (NCI-H596; first compound 0.08 µM) was 0.538 and the relative viability (NCI-H596; first compound 0.253 µM) was 0.487. For the same compound, the relative viability (NCI-H596; first compound 0.8 µM) was 0.534, the relative viability (NCI-H596; first compound 2.53 µM) was 0.436 and the relative viability (NCI-H596; first compound 8 µM) was 0.479. For the same compound, the relative viability (HARA; first compound 0.08 µM) was 0.245, the relative viability (HARA; first compound 0.253 µM) was 0.262 and the relative viability (HARA; first compound 0.8 µM) was 0.241. The relative viability (HARA; first compound 2.53 µM) was 0.282, the relative viability (HARA; first compound 8 µM) was 0.198 and the relative viability (NCI-H1975; first compound 0.08 µM) was 0.309. The relative viability (NCI-H1975; first compound 0.253 µM) was 0.261, the relative viability (NCI-H1975; first compound 0.8 µM) was 0.305 and the relative viability (NCI-H1975; first compound 2.53 µM) was 0.28. It also gave a relative viability (NCI-H1975; first compound 8 µM) of 0.283, a relative viability (SK-LU-1; first compound 0.08 µM) of 1.05 and a relative viability (SK-LU-1; first compound 0.253 µM) of 0.991. The relative viability (SK-LU-1; first compound 0.8 µM) was 0.897, the relative viability (SK-LU-1; first compound 2.53 µM) was 0.853 and the relative viability (SK-LU-1; first compound 8 µM) was 0.817. It also gave a relative viability (NCI-H441; first compound 0.08 µM) of 0.27, a relative viability (NCI-H441; first compound 0.253 µM) of 0.314 and a relative viability (NCI-H441; first compound 0.8 µM) of 0.276. The relative viability (NCI-H441; first compound 2.53 µM) was 0.265, the relative viability (NCI-H441; first compound 8 µM) was 0.238 and the relative viability (NCI-H650; first compound 0.08 µM) was 0.939. It also gave a relative viability (NCI-H650; first compound 0.253 µM) of 0.936, a relative viability (NCI-H650; first compound 0.8 µM) of 0.793 and a relative viability (NCI-H650; first compound 2.53 µM) of 0.914. For the same compound, the relative viability (NCI-H650; first compound 8 µM) was 1.02, the relative viability (PC-14; first compound 0.253 µM) was 0.14 and the relative viability (PC-14; first compound 0.8 µM) was 0.14. It also gave a relative viability (PC-14; first compound 2.53 µM) of 0.0963, a relative viability (PC-14; first compound 8 µM) of 0.063 and a relative viability (NCI-H1755; first compound 0.08 µM) of 0.707. For the same compound, the relative viability (NCI-H1755; first compound 0.253 µM) was 0.423, the relative viability (NCI-H1755; first compound 0.8 µM) was 0.516 and the relative viability (NCI-H1755; first compound 2.53 µM) was 0.389. It also gave a relative viability (NCI-H1755; first compound 8 µM) of 0.393, a relative viability (LXF-289; first compound 0.08 µM) of 0.859 and a relative viability (LXF-289; first compound 0.253 µM) of 0.873. It also gave a relative viability (LXF-289; first compound 0.8 µM) of 0.859, a relative viability (LXF-289; first compound 2.53 µM) of 0.869 and a relative viability (LXF-289; first compound 8 µM) of 0.874. It also gave a relative viability (H3255; first compound 0.253 µM) of 0.53, a relative viability (H3255; first compound 0.8 µM) of 0.503 and a relative viability (H3255; first compound 2.53 µM) of 0.519. It also gave a relative viability (H3255; first compound 8 µM) of 0.578, a relative viability (NCI-H1915; first compound 0.08 µM) of 0.482 and a relative viability (NCI-H1915; first compound 0.253 µM) of 0.415. For the same compound, the relative viability (NCI-H1915; first compound 2.53 µM) was 0.448, the relative viability (NCI-H1915; first compound 8 µM) was 0.423 and the relative viability (NCI-H460; first compound 0.08 µM) was 0.05. For the same compound, the relative viability (NCI-H460; first compound 0.253 µM) was 0.0643, the relative viability (NCI-H460; first compound 0.8 µM) was 0.0627 and the relative viability (NCI-H460; first compound 2.53 µM) was 0.0654. It also gave a relative viability (NCI-H460; first compound 8 µM) of 0.0685, a relative viability (PC-3 [JPC-3]; first compound 0.253 µM) of 1.08 and a relative viability (PC-3 [JPC-3]; first compound 0.8 µM) of 1.04. For the same compound, the relative viability (PC-3 [JPC-3]; first compound 2.53 µM) was 1.08, the relative viability (PC-3 [JPC-3]; first compound 8 µM) was 0.985 and the relative viability (NCI-H3122; first compound 0.08 µM) was 0.238. It also gave a relative viability (NCI-H3122; first compound 0.253 µM) of 0.206, a relative viability (NCI-H3122; first compound 0.8 µM) of 0.178 and a relative viability (NCI-H3122; first compound 2.53 µM) of 0.195. For the same compound, the relative viability (NCI-H3122; first compound 8 µM) was 0.2, the relative viability (HCC-15; first compound 0.08 µM) was 0.229 and the relative viability (HCC-15; first compound 0.253 µM) was 0.226. It also gave a relative viability (HCC-15; first compound 0.8 µM) of 0.221, a relative viability (HCC-15; first compound 2.53 µM) of 0.213 and a relative viability (HCC-15; first compound 8 µM) of 0.205.
